Measurements taken from doi:10.1101/2022.12.01.518643 (bioRxiv, 2022).
Like-named read-outs stand apart in the source and are kept apart here.

Columns and labels:
[1] = target: DP4 (HLA-DPA1*01:03/DPB1*04:01), DP4.1 (Homo sapiens, UniProt P04440+P20036); assay: Fluorescence polarization competition binding assay, DP4.1; details: FP competition; Alexa488 oxytocinase probe 25 nM; DP4.1-Clip 250 nM; HLA-DM 500 nM; 37 °C, 24 h
[2] = target: soluble DP4 (HLA-DPA1*01:03/DPB1*04:01) (human)
[3] = target: soluble recombinant HLA-DR DRB5*01:01 (DR2a) (human)
[4] = target: soluble recombinant HLA-DR DRB1*15:01 (DR2b) (human)
DRB5*01:01 (DR2a) = DRB5*01:01 (DR2a) (Homo sapiens, UniProt P01903+Q30154); assay: Fluorescence polarization competition binding assay, DR2a; details: FP competition; Alexa488 influenza hemagglutinin probe 25 nM; DR2a-CLIP 250 nM; HLA-DM 500 nM; 37 °C, 24 h
DRB1*15:01 (DR2b) = DRB1*15:01 (DR2b) (Homo sapiens, UniProt P01903+P01911); assay: Fluorescence polarization competition binding assay, DR2b; details: FP competition; Alexa488 MBP probe 25 nM; DR2b-CLIP 500 nM; HLA-DM 500 nM; 37 °C, 24 h
[5] = test system: relevant alleles (DP4.1, DR2b, DR2a); assay: Fluorescence polarization competition binding assay, relevant alleles; design: species or system human; details: six representative HLA-DR peptides
[6] = test system: T cell lines expanded in vitro with OC43 or SARS-CoV-2 peptides; assay: IFN-γ ELISpot cross-reactivity between OC43 peptides and homologs of other coronaviruses; details: Table 1
[7] = test system: peptide-expanded T cells from partially HLA-matched donors; assay: IFN-γ ELISpot, single-peptide in vitro expanded T cells with single allele APC; format: cell-based, human; details: for minimal activating peptide concentration: dose range 10 – 10^−7 μg/mL; for T cell recognition, IFN-γ ELISpot: expanded T cells from HLA-matched donors
[8] = test system: single-peptide-expanded T cell lines; assay: Intracellular cytokine staining (ICS) of single-peptide-expanded T cell lines; format: cell-based, human; details: single allele APC, 1 μg/mL
[9] = target: soluble recombinant HLA-DR DRB1*15:01 (DR2b) (human); assay: fluorescence polarisation
[10] = target: soluble recombinant HLA-DR DRB5*01:01 (DR2a) (human); assay: fluorescence polarisation

Substance: YLAISNELLLTVPTK [Peptide P1, OC43 hemagglutinin esterase 259–273, naturally processed peptide eluted from HLA-DP]
- IC50 [1]: < 1000 nM

Substance: OC43 spike peptide 903–917 (P4)
- IC50 [2]: < 10000 nM

Substance: OC43 spike peptide 98–114 (P12)
- IC50 [3]: < 1000 nM
- IC50 [4]: > 1000 nM

Substance: DFINGIFAKVKNTKVIK [Peptide P12, OC43 spike 98–114, naturally processed peptide eluted from HLA-DR]
- IC50 (DRB5*01:01 (DR2a)): < 1000 nM
- IC50 (DRB1*15:01 (DR2b)): ≥ 1000 nM
- binding to DR2a / DR2b allotypes [5]: bound exclusively to DR2a

Substance: LTALNAYVSQQLSDS [Peptide P11, OC43 spike 1085–1099, naturally processed peptide eluted from HLA-DR]
- SARS-CoV-2 cross-reactivity [6]: yes
- minimal activating peptide concentration ([7]; donor 07): 1 µg/mL

Substance: EGQQIIFYEGVNFTP [Peptide P8, OC43 hemagglutinin esterase 93–107, naturally processed peptide eluted from HLA-DR]
- T cell recognition, IFN-γ ELISpot [7]: not recognized
- IFN-γ response in ICS [8]: did not produce a response

Substance: PSGGNVVPYYSWFSG [Peptide P10, OC43 nucleoprotein 54–68, naturally processed peptide eluted from HLA-DR]
- minimal activating peptide concentration ([7]; donors 18, 22, and 40): 10^−5 μg/mL
- minimal peptide concentrations ([7]; responding CD4 T cells, discussion): about 10 pg/mL

Substance: OC43 nucleoprotein peptide 54–68 (P10)
- IC50 [4]: < 1000 nM

Substance: OC43 envelope protein peptide 62–78 (P14)
- IC50 [2]: < 10000 nM

Substance: LSDFINGIFAKVKNTK [Peptide P3, OC43 spike 97–111, naturally processed peptide eluted from HLA-DP]
- minimal activating peptide concentration ([7]; expanded cells from donor 61): 10^−7 μg/mL

Substance: LFYTQVYKNMAVYRS [Peptide P9, OC43 hemagglutinin esterase 128–142, naturally processed peptide eluted from HLA-DR]
- IC50 (DRB5*01:01 (DR2a)): < 1000 nM
- minimal activating peptide concentration ([7]; donor 40): 1 µg/mL
- binding to DR2a / DR2b allotypes [5]: both allotypes

Substance: SRQYLLAFNQDGIIFN [Peptide P13, OC43 spike 271–286, naturally processed peptide eluted from HLA-DR]
- T cell recognition, IFN-γ ELISpot [7]: not recognized
- IFN-γ response in ICS [8]: did not produce a response
- IC50 (DRB1*15:01 (DR2b)): < 1000 nM

Substance: OC43 spike peptide 1140–1155 (P6)
- IC50 [2]: > 10000 nM

Substance: OC43 hemagglutinin esterase peptide 93–107 (P8)
- IC50 [9]: < 1000 nM

Substance: OC43 nucleoprotein peptide 321–336 (P2)
- IC50 [2]: > 10000 nM

Substance: APYGLYFIHFSYVPTK [Peptide P6, OC43 spike 1140–1155, naturally processed peptide eluted from HLA-DP]
- IC50 [1]: ≥ 10000 nM

Substance: OC43 spike peptide 760–773 (P5)
- IC50 [2]: < 1000 nM

Substance: NRGRQFYEFYNDVKPP [Peptide P14, OC43 envelope 62–78, naturally processed peptide eluted from HLA-DP]
- T cell recognition, IFN-γ ELISpot [7]: not recognized
- IFN-γ response in ICS [8]: did not produce a response

Substance: OC43 hemagglutinin esterase peptide 128–142 (P9)
- IC50 [10]: < 1000 nM
- IC50 [9]: < 1000 nM

Substance: ITTGYRFTNFEPFT [Peptide P5, OC43 spike 760–773, naturally processed peptide eluted from HLA-DP]
- IC50 [1]: < 1000 nM

Substance: OC43 spike peptide 271–286 (P13)
- IC50 [4]: < 1000 nM

Substance: OC43 spike peptide 97–111 (P3)
- IC50 [2]: < 10000 nM

Substance: GAFFFGSRLELAKVQN [Peptide P2, OC43 nucleoprotein 321–336, naturally processed peptide eluted from HLA-DP]
- minimal activating peptide concentration ([7]; expanded cells from donor 61): 10^−6 μg/mL
- IC50 [1]: ≥ 10000 nM

Substance: OC43 spike peptide 1147–1164 (P7)
- IC50 [2]: < 10000 nM

Substance: OC43 spike peptide 1085–1099 (P11)
- IC50 [4]: < 1000 nM
